From US8796244B2, “Imidazopyridine derivatives as inhibitors of receptor tyrosine kinases” (Astex Therapeutics Ltd, priority 2008, dated 2014)

Experiments:
[1] = tested on: parental wild-type Ba/F3 cells; assay: Ba/F3 (WT) cell proliferation assay (Alamar Blue); format: cell-based; conditions: Mus musculus; for inhibition at 1 µM / inhibition at 3 µM / inhibition at 10 µM: BaF3, read-out: BaF3 WT prolif, % inhibition; for IC50: BaF3, 72 hours, Alamar Blue, read-out: BaF3 WT prolif
[2] = target: VEGFR2 (Homo sapiens (Human), UniProt P35968); assay: VEGFR2 in vitro kinase inhibitory activity assay (TRF, Flt3 substrate); format: biochemical; conditions: for inhibition at 1 µM: 1 h, read-out: VEGFR2 % I
[3] = tested on: LP-1 cell line (FGF-1/Heparin induced pERK); assay: Cell-based pERK ELISA, LP-1 cells; conditions: Homo sapiens, LP-1, read-out: LP-1 pERK ELISA (μM)
[4] = target: FGFR3 (Homo sapiens (Human), UniProt P22607); assay: FGFR3 in vitro kinase inhibitory activity assay (TRF); conditions: 3 h, read-out: FGFR3 % I
[5] = tested on: Ba/F3-TEL-FGFR3 cells; assay: Ba/F3-TEL-FGFR3 cell proliferation assay (Alamar Blue); format: cell-based; conditions: 72 hours, Alamar Blue; read-out: BaF3-TEL-FGFR3 prolif

Chain of VEGFR2 (P35968 20-1356): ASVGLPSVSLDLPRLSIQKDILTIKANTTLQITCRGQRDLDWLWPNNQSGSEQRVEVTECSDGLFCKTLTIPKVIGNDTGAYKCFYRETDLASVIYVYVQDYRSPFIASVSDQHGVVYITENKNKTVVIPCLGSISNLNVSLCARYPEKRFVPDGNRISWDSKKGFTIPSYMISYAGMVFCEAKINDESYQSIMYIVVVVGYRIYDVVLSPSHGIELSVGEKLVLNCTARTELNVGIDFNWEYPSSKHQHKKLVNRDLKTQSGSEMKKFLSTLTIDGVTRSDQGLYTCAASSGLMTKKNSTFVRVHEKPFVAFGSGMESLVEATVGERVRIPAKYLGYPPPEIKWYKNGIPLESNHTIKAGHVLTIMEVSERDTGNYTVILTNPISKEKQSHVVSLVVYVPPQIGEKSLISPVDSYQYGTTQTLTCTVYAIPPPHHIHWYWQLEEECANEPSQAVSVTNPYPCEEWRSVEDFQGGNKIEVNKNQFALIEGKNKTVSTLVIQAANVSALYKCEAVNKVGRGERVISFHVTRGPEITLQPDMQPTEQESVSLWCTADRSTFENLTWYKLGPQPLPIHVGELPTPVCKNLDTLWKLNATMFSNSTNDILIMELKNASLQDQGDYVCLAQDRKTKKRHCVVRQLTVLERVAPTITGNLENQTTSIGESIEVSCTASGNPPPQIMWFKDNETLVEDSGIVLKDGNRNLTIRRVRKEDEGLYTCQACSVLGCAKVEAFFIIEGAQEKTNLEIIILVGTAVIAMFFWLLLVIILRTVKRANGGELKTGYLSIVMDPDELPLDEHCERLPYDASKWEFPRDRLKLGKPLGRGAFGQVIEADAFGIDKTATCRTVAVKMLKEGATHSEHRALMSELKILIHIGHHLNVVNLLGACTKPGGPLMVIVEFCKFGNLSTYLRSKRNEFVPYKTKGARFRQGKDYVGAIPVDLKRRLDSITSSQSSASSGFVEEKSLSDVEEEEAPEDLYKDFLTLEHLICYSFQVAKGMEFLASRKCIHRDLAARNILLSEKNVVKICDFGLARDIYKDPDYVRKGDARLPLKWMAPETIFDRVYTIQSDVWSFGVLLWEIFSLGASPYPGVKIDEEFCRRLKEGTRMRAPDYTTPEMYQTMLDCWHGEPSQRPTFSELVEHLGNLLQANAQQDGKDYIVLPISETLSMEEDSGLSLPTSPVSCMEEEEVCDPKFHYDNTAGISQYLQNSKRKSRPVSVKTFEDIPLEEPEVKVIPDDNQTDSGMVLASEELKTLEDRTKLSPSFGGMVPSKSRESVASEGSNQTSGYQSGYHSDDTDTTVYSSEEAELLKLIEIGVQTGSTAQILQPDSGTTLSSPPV
Chain of FGFR3 (P22607 23-806): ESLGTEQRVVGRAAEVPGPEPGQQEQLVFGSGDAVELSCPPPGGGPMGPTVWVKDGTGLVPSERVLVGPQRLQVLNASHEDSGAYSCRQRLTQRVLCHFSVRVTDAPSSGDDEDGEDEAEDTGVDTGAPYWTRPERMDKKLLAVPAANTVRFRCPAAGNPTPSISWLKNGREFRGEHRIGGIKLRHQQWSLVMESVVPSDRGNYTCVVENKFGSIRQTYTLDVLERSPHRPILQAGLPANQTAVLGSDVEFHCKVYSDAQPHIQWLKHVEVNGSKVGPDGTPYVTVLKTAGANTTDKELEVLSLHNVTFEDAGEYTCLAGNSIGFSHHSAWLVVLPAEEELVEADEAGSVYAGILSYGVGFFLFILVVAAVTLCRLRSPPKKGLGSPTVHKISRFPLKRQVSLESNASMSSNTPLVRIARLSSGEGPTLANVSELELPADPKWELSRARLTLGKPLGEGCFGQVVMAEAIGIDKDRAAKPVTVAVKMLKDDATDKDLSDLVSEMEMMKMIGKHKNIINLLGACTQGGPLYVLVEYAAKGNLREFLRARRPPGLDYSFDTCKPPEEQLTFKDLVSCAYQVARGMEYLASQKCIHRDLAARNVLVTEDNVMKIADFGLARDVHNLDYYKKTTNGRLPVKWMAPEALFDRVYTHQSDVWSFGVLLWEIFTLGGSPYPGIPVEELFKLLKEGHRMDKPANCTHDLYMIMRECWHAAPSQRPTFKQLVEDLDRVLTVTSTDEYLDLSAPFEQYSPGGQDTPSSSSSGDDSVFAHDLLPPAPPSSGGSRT

## COc1cc(NC(=O)NCC(F)(F)F)cc(-c2cnc3cc(-c4ncc(F)c(N)n4)ccn23)c1 [Compound 252]
[1]
  inhibition at 1 µM: 0%
other
  melting point: 154 °C
[2]
  IC50: > 1 µM

## Nc1nc(-c2ccn3c(-c4cc(NC(=O)NCC(F)(F)F)cc(C(F)(F)F)c4)cnc3c2)ncc1F [Compound 258]
[1]
  inhibition at 3 µM: 36%
other
  melting point: 185 °C
[2]
  inhibition at 1 µM: 37%

## Cn1cncc1C#Cc1ccn2c(-c3cncc(NC(=O)NCC(F)(F)F)c3)cnc2c1 [Compound 265]
other
  melting point: > 250 °C
[2]
  IC50: > 30 µM

## NCc1cc(NC(=O)NCC(F)(F)F)cc(-c2cnc3cc(-c4ccnc(C(F)(F)F)n4)ccn23)c1 [Compound 274]
other
  melting point: 190 °C
[2]
  inhibition at 1 µM: 55%

## NC(=O)Nc1cccc(-c2cnc3cc(-c4nncs4)ccn23)c1 [Compound 268]
[1]
  inhibition at 3 µM: 23.5%
other
  melting point: 259 °C
[3]
  IC50: 1.83 µM

## NCC1CCN(c2ccc(-c3ccn4c(-c5cccc(NC(=O)NCC(F)(F)F)c5)cnc4c3)cn2)CC1 [Compound 271]
[1]
  IC50: 120 nM
other
  melting point: 80 °C
[4]
  inhibition at 0.001 µM: 59%
[5]
  IC50: 63 nM

## O=C(NCC(F)(F)F)Nc1cccc(-c2cnc3cc(-c4nnc(NC5CC5)s4)ccn23)c1 [Compound 250]
[1]
  inhibition at 3 µM: 25%
  IC50: 1730 nM
other
  melting point: > 280 °C
[3]
  IC50: 0.075 µM

## CCNC(=O)Nc1cccc(-c2cnc3cc(C#Cc4cncn4C)ccn23)c1 [Compound 264]
[1]
  inhibition at 10 µM: 25%
other
  melting point: 163 °C
[3]
  IC50: 0.31 µM

## Nc1nc(-c2ccn3c(-c4cccc(NC(=O)NCC(F)(F)F)c4)cnc3c2)ncc1CN1CCC1 [Compound 259]
[1]
  IC50: 2600 nM
other
  melting point: 195 °C

## CC(O)c1cnc(-c2ccn3c(-c4cccc(NC(=O)NCC(F)(F)F)c4)cnc3c2)nc1 (stereo not drawn) [Compound 278]
[1]
  inhibition at 1 µM: 0%
other
  melting point: 224 °C

## CC(C)COC(=O)Nc1nc(-c2ccn3c(-c4cccc(NC(=O)NCC(F)(F)F)c4)cnc3c2)ncc1F [Compound 273]
[1]
  inhibition at 10 µM: 43%
other
  melting point: 215.2 °C
[2]
  inhibition at 1 µM: 40%

## O=C(NCC(F)(F)F)Nc1cc(F)cc(-c2cnc3cc(-c4ccnc(C(F)(F)F)n4)ccn23)c1 [Compound 251]
[1]
  inhibition at 10 µM: 0%
other
  melting point: 263 °C

## CS(=O)(=O)Nc1nc(-c2ccn3c(-c4cccc(NC(=O)NCC(F)(F)F)c4)cnc3c2)ncc1F [Compound 279]
[1]
  inhibition at 10 µM: 7%
other
  melting point: > 350 °C

## CN(C)S(=O)(=O)NCC1CCN(c2ccc(-c3ccn4c(-c5cccc(NC(=O)NCC(F)(F)F)c5)cnc4c3)cn2)CC1 [Compound 272]
[1]
  IC50: 200 nM
other
  melting point: 145 °C
[4]
  inhibition at 0.00097 µM: 51%
[5]
  IC50: 51 nM
